“And” between values parts separate entries of the source, which are not always exact repeats. Equal values may be shown once. ± gives the expanded uncertainty stated by the source.
Settings: Liquid, Rate of evaporation

CCCCO [butan-1-ol]
Settings	vapor or sublimation pressure
301.02 K	1.09 ± 0.11 kPa
305.59 K	1.46 ± 0.15 kPa
310.16 K	1.92 ± 0.19 kPa
310.26 K	1.96 ± 0.2 kPa
310.29 K	1.9 ± 0.2 kPa and 1.91 ± 0.19 kPa
314.75 K	2.67 ± 0.27 kPa
314.76 K	2.6 ± 0.3 kPa and 2.5 ± 0.3 kPa
314.81 K	2.61 ± 0.26 kPa
321.34 K	4.15 ± 0.42 kPa and 4.19 ± 0.42 kPa
322.07 K	4.33 ± 0.43 kPa
322.58 K	4.48 ± 0.45 kPa
322.69 K	4.52 ± 0.45 kPa
323.09 K	4.54 ± 0.45 kPa
323.14 K	4.54 ± 0.45 kPa
323.5 K	4.62 ± 0.46 kPa
323.67 K	4.69 ± 0.47 kPa
323.78 K	4.75 ± 0.48 kPa
323.9 K	4.74 ± 0.47 kPa
324.18 K	4.79 ± 0.48 kPa
324.28 K	4.85 ± 0.49 kPa
324.57 K	4.91 ± 0.49 kPa
324.59 K	4.87 ± 0.49 kPa
324.8 K	4.95 ± 0.5 kPa
324.91 K	4.98 ± 0.5 kPa
333.51 K	8.09 ± 0.81 kPa
334.32 K	8.38 ± 0.84 kPa
341.78 K	12.79 ± 1.3 kPa
343.2 K	13.52 ± 1.4 kPa
343.36 K	13.71 ± 1.4 kPa
343.39 K	14.44 ± 1.4 kPa
352.7 K	21.03 ± 2.1 kPa
360.58 K	32.09 ± 3.2 kPa

CCO [ethanol]
Settings	vapor or sublimation pressure [kPa]
301.1 K	9.07 ± 0.91
305.47 K	10.94 ± 1.1
305.54 K	11.69 ± 1.2
305.63 K	11.08 ± 1.1
305.68 K	11.85 ± 1.2

Cc1ccccc1 [toluene]
Settings	vapor or sublimation pressure [kPa]
300.89 K	4.47 ± 0.45
305.64 K	5.17 ± 0.52
305.68 K	5.23 ± 0.52
324.21 K	13.4 ± 1.3

CCCCCCCCO [octan-1-ol]
Settings	vapor or sublimation pressure [kPa]
319.82 K	0.06 ± 0.01
324.46 K	0.09 ± 0.01
333.93 K	0.21 ± 0.02
343.23 K	0.38 ± 0.04
343.39 K	0.4 ± 0.1
348.15 K	0.54 ± 0.05
362.32 K	1.36 ± 0.14
390.95 K	6.14 ± 0.61

Reference: the NIST ThermoML archive (doi:10.1016/j.tca.2014.09.011)
